Consider 42 compounds from patent US20060079453A1, “Hla binding peptides and their uses” (priority 2002, published 2006).

Targets include HLA-DR DRB1*0401 (DR4) (Homo sapiens, UniProt P01903+P01911, A100K/A169T/F76Y/I96L/K127E/L162R/M171V/N62H/P40V/Q125Y/R42H/S133A/S149N/S66Y/V115G/V209L/W38E); HLA-DR DRB1*0101 (DR1) (Homo sapiens, UniProt P01903+P01911, A100R/D57E/F55L/F60I/F76Y/I96L/L162R/M171V/P40L/Q125E/R42F/V115G/Y59C); HLA-DR DRB1*0701 (DR7) (Homo sapiens, UniProt P01903+P01911, A100R/A102G/A103Q/D57E/D86V/E43K/F76Y/K127E/L162R/M171V/P40G/Q125H/Q99D/R33Q/R42Y/R54Q/S133A/S66F/T210M/V115G/Y107V/Y59L/Y89S).

Experiment in all cases: biochemical
What all share (type): binding

The next test addresses HLA-DR DRB1*1501 (DR15) (Homo sapiens, UniProt P01903+P01911). As to conditions: DRBI *1501.
The next test concerns the target HLA-DR DRB5*0101 (DR51) (Homo sapiens, UniProt P01903+Q30154). As to conditions: DRB5 *0101.
The next test has as its target HLA-DR DRB4*0101 (DR53) (Homo sapiens, UniProt P01903+P13762, G164S). As to conditions: DRB4 *0101.

Read-outs that look alike come from different tables or passages of the source. No end group written: not given here.

Turning to `C[C@H](NC(=O)[C@H](C)NC(=O)[C@H](C)NC(=O)[C@H](C)NC(=O)[C@H](C)NC(=O)[C@H](C)NC(=O)[C@H](C)NC(=O)[C@H](C)NC(=O)[C@H](C)NC(=O)[C@H](C)NC(=O)[C@H](C)NC(=O)[C@H](C)NC(=O)[C@@H](N)Cc1ccccc1)C(=O)O`, on HLA-DR DRB1*0401 (DR4) (DRB1 *0401), the IC50 turned out to be 0.2 µM.
AAKIFIGFFIDGA gave an IC50 at HLA-DR DRB1*0401 (DR4) (DRB1 *0401) of 0.2 µM.
Take TWQLNGEELIQDM: on HLA-DR DRB1*0101 (DR1) (read-out: DRB1 *0101), the IC50 is not below 50 µM.
On the same count and under the same terms, in the case of AFAAAKTAA(72) it was 5 µM.
Turning to NPVVHFFKNIVTPR, the IC50 at HLA-DR DRB1*1501 (DR15) came to 0.0037 µM; against HLA-DR DRB5*0101 (DR51), 1.89 µM.
Consider Ac-ASQKRPSQRHGSKYLATAST, for which the IC50 against HLA-DR DRB5*0101 (DR51) came to 4.56 µM.
FLGQQQPFPPQ had an IC50 against HLA-DR DRB4*0101 (DR53) of 0.031 µM.
Consider QKWAAVVVPS, for which the IC50 against HLA-DR DRB1*0101 (DR1) (DRB1 *0101) was not below 50 µM; on HLA-DR DRB1*0401 (DR4) (DRB1 *0401), 1 µM.
On HLA-DR DRB4*0101 (DR53), QFLGQQQPFPP showed an IC50 of 0.0023 µM.
As to PKYFKQRLLKFAT, the IC50 at HLA-DR DRB1*0401 (DR4) (read-out: DRB1 *0401) was found to be 0.4 µM.
In turn, YFNNFTVSFWLRVPK yielded an IC50 against HLA-DR DRB1*0101 (DR1) not below 50 µM.
As for AWVAWRNRCK, the IC50 on HLA-DR DRB1*0101 (DR1) (read-out: DRB1 *0101) was not below 50 µM; on HLA-DR DRB1*0701 (DR7) (read-out: DRB1 *0701), more than 12.5 µM.
On to KYVKQNTLKLAT, for which the IC50 is 0.0099 µM at HLA-DR DRB1*0101 (DR1) and 0.0062 µM at HLA-DR DRB1*0401 (DR4).
On to KSLLSTNLPYGRTNL, for which the IC50 against HLA-DR DRB1*0401 (DR4) (DRB1 *0401) came out at 0.69 µM; on HLA-DR DRB1*0701 (DR7) (DRB1 *0701), 50 µM.
On HLA-DR DRB4*0101 (DR53), IRNLALQTLP displayed an IC50 of 0.003 µM.
`CC[C@H](C)[C@H](N)C(=O)NCC(=O)N[C@@H](Cc1c[nH]cn1)C(=O)N[C@@H](CC(C)C)C(=O)N[C@@H](Cc1ccc(O)cc1)C(=O)N[C@H](C(=O)N[C@@H](Cc1ccccc1)C(=O)N[C@@H](C)C(=O)N[C@H](C(=O)N[C@@H](CS)C(=O)N[C@@H](CC(C)C)C(=O)NCC(=O)N[C@@H](CC(C)C)C(=O)N[C@@H](CO)C(=O)N[C@@H](Cc1ccc(O)cc1)C(=O)N[C@@H](CC(=O)O)C(=O)NCC(=O)N[C@@H](CC(C)C)C(=O)O)[C@@H](C)O)[C@@H](C)CC` yielded an IC50 against HLA-DR DRB1*0401 (DR4) (DRB1 *0401) of more than 0.816 µM.
On to EERVKKPLSEITIRC, for which the IC50 was found to be 11.9 µM on HLA-DR DRB1*0401 (DR4) (DRB1 *0401), 9.45 µM on HLA-DR DRB1*0701 (DR7) (DRB1 *0701), 2.99 µM on HLA-DR DRB4*0101 (DR53) and 7.91 µM at HLA-DR DRB5*0101 (DR51).
On to PEFLEQRRAAVDTYC, for which the IC50 is 5 µM against HLA-DR DRB1*0101 (DR1) (DRB1 *0101) and 80 µM at HLA-DR DRB1*0401 (DR4) (DRB1 *0401).
In the case of NLALQTLPAMCNVY, the IC50 at HLA-DR DRB4*0101 (DR53) stood at 0.027 µM.
Consider DPNANPNVDPNAN, for which the IC50 on HLA-DR DRB1*0401 (DR4) (read-out: DRB1 *0401) is 0.738 µM; on HLA-DR DRB1*0701 (DR7) (read-out: DRB1 *0701), more than 15.6 µM.
KQPFRPQQPYPQ displayed an IC50 against HLA-DR DRB4*0101 (DR53) of 0.056 µM.
As for AALKATAAAAAAA, the IC50 is not below 50 µM at HLA-DR DRB1*0101 (DR1) (DRB1 *0101) and 0.8 µM at HLA-DR DRB1*0401 (DR4) (DRB1 *0401).
Turning to EGDAFELTVSC, the IC50 on HLA-DR DRB1*0401 (DR4) (read-out: DRB1 *0401) was determined as 0.572 µM.
On to AAFIFIGGGKIKA, for which the IC50 at HLA-DR DRB1*0101 (DR1) (DRB1 *0101) is not below 50 µM; against HLA-DR DRB1*0401 (DR4) (DRB1 *0401) it was 0.195 µM.
Turning to AAAKAAAAAAAAF, the IC50 against HLA-DR DRB1*0101 (DR1) (DRB1 *0101) is more than 1.67 µM; at HLA-DR DRB1*0401 (DR4) (DRB1 *0401), more than 0.348 µM.
In turn, PQPFRPQKPYPQ registered an IC50 on HLA-DR DRB4*0101 (DR53) of 0.022 µM.
Regarding PKPFRPQQPYPQ, on HLA-DR DRB4*0101 (DR53), the IC50 was 0.0034 µM.
As to LGQQQPFPPQ, the IC50 at HLA-DR DRB4*0101 (DR53) was determined as 0.151 µM.
(43)AAIGFFFFKKGIA: the IC50 at HLA-DR DRB1*0401 (DR4) (read-out: DRB1 *0401) came to 0.258 µM.
As to AAYAAAATAKAAA, the IC50 at HLA-DR DRB1*0101 (DR1) (read-out: DRB1 *0101) was found to be 0.0039 µM; on HLA-DR DRB1*0401 (DR4) (read-out: DRB1 *0401), 0.00054 µM.
Compound PAYEKLSAEQSPPPY registered an IC50 against HLA-DR DRB1*0401 (DR4) (DRB1 *0401) of 0.479 µM.
Turning to AADDDDDDDDDDA, on HLA-DR DRB1*0101 (DR1) (DRB1 *0101), the IC50 was not below 50 µM.
As for AFAAAKTAA, at HLA-DR DRB1*0401 (DR4) (DRB1 *0401), the IC50 is 0.571 µM.
Take (46)AAKTAAAFA: the IC50 at HLA-DR DRB1*0101 (DR1) (read-out: DRB1 *0101) stood at 5 µM.
Consider AAFFFFFGGGGGA, for which the IC50 was not below 50 µM against HLA-DR DRB1*0101 (DR1) (DRB1 *0101) and 0.8 µM on HLA-DR DRB1*0401 (DR4) (DRB1 *0401).
With AAAKAAAAAAFAA, the IC50 on HLA-DR DRB1*0401 (DR4) (DRB1 *0401) was found to be 0.235 µM.
The compound PFRPQQPYPQ gave an IC50 against HLA-DR DRB4*0101 (DR53) of 0.042 µM.
As to FFKNIVTFFKNIVT, the IC50 on HLA-DR DRB1*0101 (DR1) (DRB1 *0101) is not below 50 µM; at HLA-DR DRB1*0401 (DR4) (DRB1 *0401) it was more than 0.667 µM; against HLA-DR DRB1*0701 (DR7) (DRB1 *0701), more than 12.5 µM.
PQPFRPQQPYKQ registered an IC50 on HLA-DR DRB4*0101 (DR53) of 0.035 µM.
Consider GRLEYCLKDRRNFDI, for which, on HLA-DR DRB5*0101 (DR51), the IC50 is 64.7 µM.
QKQVQMMIMTKFMGV: the IC50 at HLA-DR DRB1*0101 (DR1) (read-out: DRB1 *0101) came out at 0.121 µM; on HLA-DR DRB1*0701 (DR7) (read-out: DRB1 *0701) it was 3.62 µM.
PQPFRKQQPYPQ registered an IC50 on HLA-DR DRB4*0101 (DR53) of 0.022 µM.
